Values joined by “and” are separate entries in the source; they are usually repeats but may differ in a detail not shown here. Identical values can stand only once.
System: MMP9
Test: ELISA, MMP9 concentration
Format: cell-based, human
Protocol: The concentrations of matrix metalloproteinase-2 (MMP2), matrix metalloproteinase-9 (MMP9), Bcl2, BAX, P53, Malondialdehyde (MDA), Glutathione (GSH), caspase 8, caspase 9 and IL-6 were measured quantitatively in 5c treated MCF7 and HEP2 cells using ELISA (Enzyme-Linked Immunosorbent Assay) (Table 4). Gelatinases are a collective word for MMP-2 and MMP-9, where MMP-2 is gelatinase-A and MMP-9 is gelatinase-B. Solid tumor invasion, metastasis, and angiogenesis have long been linked to gelatinases (Das et al. [2021]). […] Bcl2 is a crucial protein that targets apoptosis inhibition. It is regarded as a predictive biomarker or therapeutic target in the diagnosis of cancer due to its broad expression in a variety of cancers (Porter et al. [2009]). […] The pro-apoptotic protein BAX permeabilizes the mitochondrial outer membrane by changing from a cytosolic monomer to a hazardous oligomer triggering the apoptosis process (Fulda and Debatin [2006]). […] P53 transcription factor performs an essential tumor suppressor role by coordinating a wide range of physiological responses, including DNA repair, cell cycle arrest, cellular senescence, cell death, cell differentiation, and metabolism (Liebl and Hofmann [2021]). It was activated in MCF7 and HEP2-treated cells with values (4.28 and 3.109 ng/mL), respectively, compared to their controls (3.44 and 2.06 ng/mL). […]

COc1ccc(NC(=O)COc2ccc(C=CC(=O)c3cccs3)cc2)cc1 [Compound 5c, N-(4-Methoxyphenyl)-2-(4-(3-oxo-3-(thiophen-2-yl)prop-1-en-1-yl)phenoxy)acetamide]
MMP9 concentration (5c treated HEP2 cells, untreated 564.8±41.45): 236.5 ng/mL and 236.5 ± 24.87 ng/mL | MMP9 concentration (5c treated MCF7 cells, untreated 588.28±24.87): 271.6 ng/mL and 271.6 ± 58.04 ng/mL

From PMC11582173, “Synthesis, cytotoxicity, anti-inflammatory, anti-metastatic and anti-oxidant activities of novel chalcones incorporating 2-phenoxy-N-arylacetamide and thiophene moieties: induction of apoptosis in MCF7 and HEP2 cells” (Naunyn-Schmiedeberg's Archives of Pharmacology, 2024)
